Where “and” joins values, the source holds several entries; their conditions need not be identical. Equal values may be shown once. Read-outs that look alike come from different tables or passages of the source.
Experiments:
[1] = Plasma, brain and liver levels after bolus IV administration in nude mice; conditions: bolus IV 5 mpk; for concentration at 6 h / concentration at 24 h: nude, mouse, in vivo, iv, 5 mg/kg
phosphorylated Tau (AT8) = assay: AT8 phosphoTau immunohistochemistry in Tg4510 mice; format: in vivo, mouse
Procedure: Mice were euthanized by cervical dislocation at 5. 5 months followed by decapitation. Brains were immediately removed and divided down the midline into two hemispheres. The right hemisphere was placed into 20 mL of 4% paraformaldehyde (prepared fresh on the day of sacrifice) and stored overnight at 4° C. The following day, the brains were transferred to a tube containing 20 mL TBS (pH 7.4, 20 mM TRIS, 100 mM NaCl) and then stored at 4° C. until processing. Right hemispheres were embedded in paraffin, sectioned at 5 microns, and mounted on positively charged glass slides. The slides were dried overnight in a 60° C. oven and stored at room temperature until stained. The left hemispheres were frozen (within 2 minutes) on dry ice.
Paraffin-embedded thin sections (5 microns) were deparaffinized and rehydrated to water in 3 changes of xylene, two changes of 100% ethanol, and 1 change of 95% ethanol, followed by rinsing in water. Antigen retrieval was performed by steaming the slides in 10 mM sodium citrate buffer, pH 6.0 for 30 minutes in a Black and Decker Steamer (Model # HS900) and then cooled for 30 minutes. […] After washing in TBS, the signal is detected using a Vectastain ABC Elite Kit (Vector Labs Burlingame, Calif.) for 1 hour followed by detection using the diaminobenzadine reagent from Vector labs. […]

[2] = Brain half-life of epothilone D in mice; format: in vivo, mouse; conditions: for half-life: mouse, brain
Excerpt: To calculate an accurate brain half-life for a long half-life compound, measurements need to be taken for several half lives after a single dose.

In the case of `C/C1=C/C[C@@H](/C(C)=C/c2csc(C)n2)OC(=O)C[C@H](O)C(C)(C)C(=O)[C@H](C)[C@@H](O)[C@@H](C)CCC1` [Epothilone D, epothilone D], the “brain levels versus liver levels” value ([1]; 6 and 24 h after dosing) is reported as “high brain levels that exceeded liver levels”, the concentration at 6 h ([1]; Brain conc) is reported as 2790 nM and the concentration at 24 h ([1]; Brain conc) is reported as 2050 nM. For the same molecule, the concentration at 6 h ([1]; Plasma conc) was 6 nM, the concentration at 24 h ([1]; Plasma conc) was 1 nM and the “AT8 phosphoTau staining, hippocampus CA1” value (phosphorylated Tau (AT8); 1 mpk IP weekly, vs vehicle) was “much less phosphoTau staining”. The “AT8 phosphoTau staining, hippocampus CA1” value (phosphorylated Tau (AT8); 10 mpk IP weekly) was “intermediate levels of phosphoTau staining”, the “Half life (brain)” value ([2]; Mouse, IP, 10 mpk, 10 mg/kg) was 37 h and 45 h and 46 h and the half-life ([2]; intravenous, oral, intraperitoneal, mice, multiple routes of administration and dosages, read-out: brain half life, average (converted)) was 46 h. The half-life ([2]; ip, 1 mg/kg, Mouse, IP, 1 mpk, read-out: Half life (brain) (converted)) was 44 h, the half-life ([2]; ip, 10 mg/kg, Mouse, IP, 10 mpk, read-out: Half life (brain) (converted)) was 41 h and the half-life ([2]; iv, 5 mg/kg, Mouse, IV, 5 mpk, read-out: Half life (brain) (converted)) was 61 h. For the same molecule, the half-life ([2]; po, 10 mg/kg, Mouse, Oral, 10 mpk, read-out: Half life (brain) (converted)) was 46 h.

— patent US8673949B2 (Bristol-Myers Squibb Company, priority 2008, dated 2014)
